The source of these data is patent US11059818B2, “Triazolopyridine inhibitors of myeloperoxidase” (BRISTOL-MYERS SQUIBB COMPANY, priority 2016, dated 2021).

SMILES strings stand for the structures.

As usually defined, the IC50 is the concentration needed to halve the response being measured. A high value points to weaker potency in that assay.

In assay [1] the target is T1, myeloperoxidase (Homo sapiens (Human), UniProt P05164). Description: MPO Chlorination Assay (APF Assay). The class given is biochemical. The following applies: potency range class. The method, then:
(§1) [formula] where A=minimal Y value (activity level of inhibited sample), B=maximal Y value (activity level of uninhibited sample), C=Log IC50, D=Hill Slope, x=concentration of inhibitor. MPO Chlorination Assay (APF Assay)
MPO chlorination activity was measured in 100 mM KPi (pH 7.4) by utilizing the non-fluorescent reagent Aminophenyl fluorescein (APF, Invitrogen Cat. #A36003). APF is cleaved by (—OCl) to yield the fluorescent compound fluorescein. Reactions were carried out in 50 μL total volume by adding a 25 μL mixture of 200 pM myeloperoxidase and 120 mM NaCl to 100 nL inhibitor in 100% DMSO in a 384 well, non-binding surface clear bottom plate (Corning #3655). Enzyme, inhibitor, and chloride were preincubated for ten minutes at rt.
After the ten minute preincubation, 25 μL of an APF mixture containing […], 120 mM NaCl and 10 μM H2O2 was added to the plate using the internal dispensing system of a Hammatsu FDSS 6000. Kinetic determinations were carried out immediately on the FDSS 6000 (3 minute kinetic read, 1 read every second, ex: 485 nm, em: 535 nm). IC50 values for inhibitors were calculated by taking the slope of the linear portion of the kinetic measurement (20 seconds to ˜80-120 secs). […]
[formula] where A=minimal Y value (activity level of inhibited sample), B=maximal Y value (activity level of uninhibited sample), C=Log IC50, D=Hill Slope, x=concentration of inhibitor.

Assay [2] addresses T1, myeloperoxidase. As to the kind of experiment: MPO Peroxidation Assay (Amplex Red Assay). Type of assay: biochemical. The following applies: potency range class. On the procedure:
MPO Peroxidation Assay (Amplex Red Assay)
MPO peroxidation activity was measured in 100 mM KPi (pH 7.4) by utilizing the non-fluorescent reagent Amplex Red (Invitrogen Cat. #A12222) which can be oxidized to the highly fluorescent resorufin. Amplex Red is oxidized by the peroxidase action of MPO to resorufin. Reactions were carried out in 50 μL total volume by adding a 25 μL mixture of 200 pM myeloperoxidase and 40 nM H2O2(Sigma #349887) to 100 nL inhibitor in 100% DMSO in a 384 well Perkin Elmer Optiplate. Enzyme and compound were preincubated for ten minutes at rt.
After the ten minute preincubation, 25 μL of an Amplex Red mixture containing 200 μM Amplex Red and 10 mM H2O2 was added to the plate. Kinetic determinations were carried out immediately on a Perkin Elmer Envision (15 minute kinetic read, Ex: 535 nm, Em: 590 nm).
IC50 values were calculated by determining the slope of the linear portion of the kinetic trace (180-540 secs), and using that calculated slope to determine % inhibition occurring at each concentration of inhibitor using the following equation:
as §1

T1 sequence (P05164 49-745): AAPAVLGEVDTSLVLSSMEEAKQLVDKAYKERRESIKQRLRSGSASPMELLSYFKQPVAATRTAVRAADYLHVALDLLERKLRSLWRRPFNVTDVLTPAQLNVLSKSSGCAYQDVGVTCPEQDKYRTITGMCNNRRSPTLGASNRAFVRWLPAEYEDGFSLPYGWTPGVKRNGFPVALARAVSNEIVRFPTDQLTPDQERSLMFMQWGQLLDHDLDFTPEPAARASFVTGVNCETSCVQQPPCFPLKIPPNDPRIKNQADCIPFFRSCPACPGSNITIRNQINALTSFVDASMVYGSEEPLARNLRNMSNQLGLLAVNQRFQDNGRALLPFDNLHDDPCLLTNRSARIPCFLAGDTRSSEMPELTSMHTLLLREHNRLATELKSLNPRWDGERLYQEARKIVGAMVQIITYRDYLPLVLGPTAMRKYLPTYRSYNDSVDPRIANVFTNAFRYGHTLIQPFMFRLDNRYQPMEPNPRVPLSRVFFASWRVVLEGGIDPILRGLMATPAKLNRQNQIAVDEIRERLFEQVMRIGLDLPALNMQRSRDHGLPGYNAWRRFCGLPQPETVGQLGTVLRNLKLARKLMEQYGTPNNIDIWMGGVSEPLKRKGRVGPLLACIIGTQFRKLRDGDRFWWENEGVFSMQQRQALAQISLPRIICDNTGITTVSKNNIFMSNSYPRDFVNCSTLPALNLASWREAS

As to `Nc1cc(C(CCN[C@H]2CC[C@H](c3ccccc3)CC2)c2cnn(Cc3cc(F)cc(F)c3)c2)c2nn[nH]c2n1` (stereo partly drawn) [Example 26, 7-(1-{1-[(3,5-Difluorophenyl)methyl]-1H-pyrazol-4-yl}-3-{[trans-4-phenylcyclohexyl]amino}propyl)-3H-[1,2,3]triazolo[4,5-b]pyridin-5-amine], the IC50 lay within 1 to 100 nM at myeloperoxidase [1] and 101 to 999 nM at myeloperoxidase [2].
